Test results taken from patent US20250195530A1, “POLQ INHIBITORS” (ASTRAZENECA AB, priority 2022, published 2025).
Read-outs that look alike come from different tables or passages of the source.

How the values were obtained:
DLD-1 cells = assay: Inhibition of proliferation, DLD-1 BRCA2 wt control (Cell Titre Glo 3D); assay type: cell-based; details: Homo sapiens, DLD-1, 168 h, 7 days
Procedure, shortened: (§1)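 Proliferation of HR-deficient DLD-1 BRCA2−/− versus isogenic wild-type DLD-1 was measured by ATP luminescence (CellTiter-Glo 3D). Compound exposure lasted 12 or 7 days, respectively, with a fresh dose on day 6. IC50 was the concentration halving maximal signal.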

DLD-1 BRCA2−/− cells = assay: Homologous recombination synthetic lethal inhibition of proliferation, DLD-1 BRCA2-/- (Cell Titre Glo 3D); assay type: cell-based; details: Homo sapiens, DLD-1, 288 h, 12 days
Procedure, shortened: as §1

[1] = DLD-1 BRCA2 wt cells, read-out: POLQ PD Prolif Lumin DLD1 mean pIC50 (converted)
[2] = DLD-1 BRCA2−/− cells, read-out: POLQ PD Prolif Lumin BRCA2 −/− mean pIC50 (converted)
[3] = DLD-1 (BRCA2 wt control), Cell Titre Glo 3D, read-out: POLQ PD Prolif Lumin DLD1 Mean pIC50 (converted)
[4] = DLD-1 BRCA2−/−, Cell Titre Glo 3D, read-out: POLQ PD Prolif Lumin BRCA2 −/− Mean pIC50 (converted)

SMILES	IC50 (DLD-1 cells; [1])	IC50 (DLD-1 BRCA2−/− cells; [2])	IC50 (DLD-1 cells; [3])	IC50 (DLD-1 BRCA2−/− cells; [4])
CC1(Oc2ncnc3c2nc(-c2ccc(OCCN4CCNCC4)cc2Cl)n3Cc2cccc(Cl)n2)CC1 [Example 23, 8-(2-chloro-4-(2-(piperazin-1-yl)ethoxy)phenyl)-9-((6-chloropyridin-2-yl)methyl)-6-(1-methylcyclopropoxy)-9H-purine]	> 10000 nM	631 nM	–	–
Cc1cc(OCCN2CCNCC2)ncc1-c1nc2c(OC3(C)CCC3)ncnc2n1Cc1ccccc1 [Example 24, 9-Benzyl-8-(4-methyl-6-(2-(piperazin-1-yl)ethoxy)pyridin-3-yl)-6-(1-methylcyclobutoxy)-9H-purine]	3980 nM	158 nM	–	–
Cc1ccnc(Cn2c(-c3ccc(OCCN(C)C)cc3Cl)nc3c(OC4(C)CC4)ncnc32)c1 [Example 25, 2-(3-Chloro-4-(6-(1-methylcyclopropoxy)-9-((4-methylpyridin-2-yl)methyl)-9H-purin-8-yl)phenoxy)-N,N-dimethylethan-1-amine]	> 10000 nM	100 nM	–	–
Cc1ccnc(Cn2c(-c3ccc(OCCN4CC(O)C4)cc3Cl)nc3c(OC4(C)CC4)ncnc32)c1 [Example 26, 1-(2-(3-Chloro-4-(6-(1-methylcyclopropoxy)-9-((4-methylpyridin-2-yl)methyl)-9H-purin-8-yl)phenoxy)ethyl)azetidin-3-ol]	> 10000 nM	501 nM	–	–
Cc1ccnc(Cn2c(-c3ccc(CC(N)=O)cc3Cl)nc3c(OC4(C)CC4)ncnc32)c1 [Example 30, 2-(3-Chloro-4-(6-(1-methylcyclopropoxy)-9-((4-methylpyridin-2-yl)methyl)-9H-purin-8-yl)phenyl)acetamide]	–	–	> 10000 nM	631 nM
CC1(Oc2ncnc3c2nc(-c2ccc(/C=C/C(=O)O)cc2Cl)n3Cc2cccc(Cl)c2)CC1 [Example 31, (E)-3-(3-Chloro-4-(9-(3-chlorobenzyl)-6-(1-methylcyclopropoxy)-9H-purin-8-yl)phenyl)acrylic acid]	–	–	> 10000 nM	398 nM
CC1(Oc2ncnc3c2nc(-c2ccc(OCC(C)(C)C(=O)O)cc2Cl)n3Cc2cccc(Cl)c2)CC1 [Example 32, 3-(3-Chloro-4-(9-(3-chlorobenzyl)-6-(1-methylcyclopropoxy)-9H-purin-8-yl)phenoxy)-2,2-dimethylpropanoic acid]	–	–	> 10000 nM	631 nM
Cc1ccnc(Cn2c(-c3ccc(OCCO)cc3Cl)nc3c(OC4(C)CC4)ncnc32)c1 [Example 33, 2-(3-Chloro-4-(6-(1-methylcyclopropoxy)-9-((4-methylpyridin-2-yl)methyl)-9H-purin-8-yl)phenoxy)ethan-1-ol]	–	–	> 10000 nM	126 nM
Cc1ccnc(Cn2c(-c3ccc(OC[C@H](C)O)cc3Cl)nc3c(OC4(C)CC4)ncnc32)c1 [Example 36, (S)-1-(3-Chloro-4-(6-(1-methylcyclopropoxy)-9-((4-methylpyridin-2-yl)methyl)-9H-purin-8-yl)phenoxy)propan-2-ol]	–	–	> 10000 nM	251 nM
Cc1ccnc(Cn2c(-c3ccc(OC[C@@H](C)O)cc3Cl)nc3c(OC4(C)CC4)ncnc32)c1 [Example 37, (R)-1-(3-Chloro-4-(6-(1-methylcyclopropoxy)-9-((4-methylpyridin-2-yl)methyl)-9H-purin-8-yl)phenoxy)propan-2-ol]	–	–	> 10000 nM	126 nM
CC1(Oc2ncnc3c2nc(-c2ccc(CC(N)=O)cc2Cl)n3Cc2cc(Cl)ccn2)CC1 [Example 38, 2-(3-Chloro-4-(9-((4-chloropyridin-2-yl)methyl)-6-(1-methylcyclopropoxy)-9H-purin-8-yl)phenyl)acetamide]	–	–	> 10000 nM	398 nM
Cc1ccnc(Cn2c(-c3ccc(OC4CN(C(=O)CO)C4)cc3Cl)nc3c(OC4(C)CC4)ncnc32)c1 [Example 39, 1-(3-(3-Chloro-4-(6-(1-methylcyclopropoxy)-9-((4-methylpyridin-2-yl)methyl)-9H-purin-8-yl)phenoxy)azetidin-1-yl)-2-hydroxyethan-1-one]	–	–	> 10000 nM	158 nM
CC(=O)N1CC(Oc2ccc(-c3nc4c(OC5(C)CC5)ncnc4n3Cc3cc(C)ccn3)c(Cl)c2)C1 [Example 40, 1-(3-(3-Chloro-4-(6-(1-methylcyclopropoxy)-9-((4-methylpyridin-2-yl)methyl)-9H-purin-8-yl)phenoxy)azetidin-1-yl)ethan-1-one]	–	–	> 10000 nM	158 nM
Cc1ccnc(Cn2c(-c3ccc(O[C@H]4CCC(=O)NC4)cc3Cl)nc3c(OC4(C)CC4)ncnc32)c1 [Example 41, (S)-5-(3-Chloro-4-(6-(1-methylcyclopropoxy)-9-((4-methylpyridin-2-yl)methyl)-9H-purin-8-yl)phenoxy)piperidin-2-one]	–	–	> 10000 nM	794 nM
Cc1ccnc(Cn2c(-c3ccc(OC4CNC(=O)NC4)cc3Cl)nc3c(OC4(C)CC4)ncnc32)c1 [Example 42, 5-(3-Chloro-4-(6-(1-methylcyclopropoxy)-9-((4-methylpyridin-2-yl)methyl)-9H-purin-8-yl)phenoxy)tetrahydropyrimidin-2(1H)-one]	–	–	> 10000 nM	6310 nM
CC1(Oc2ncnc3c2nc(-c2ccc(OCCCCC(=O)O)cc2Cl)n3Cc2cccc(Cl)c2)CC1 [Example 43, 5-(3-Chloro-4-(9-(3-chlorobenzyl)-6-(1-methylcyclopropoxy)-9H-purin-8-yl)phenoxy)pentanoic acid]	–	–	> 10000 nM	79.4 nM
CC1(Oc2ncnc3c2nc(-c2ccc(OCCCC(=O)O)cc2Cl)n3Cc2cccc(Cl)c2)CC1 [Example 44, 4-(3-Chloro-4-(9-(3-chlorobenzyl)-6-(1-methylcyclopropoxy)-9H-purin-8-yl)phenoxy)butanoic acid]	–	–	> 10000 nM	158 nM
Cc1ccnc(Cn2c(-c3ccc(OCC(C)(C)O)cc3Cl)nc3c(OC4(C)CC4)ncnc32)c1 [Example 45, 1-(3-Chloro-4-(6-(1-methylcyclopropoxy)-9-((4-methylpyridin-2-yl)methyl)-9H-purin-8-yl)phenoxy)-2-methylpropan-2-ol]	–	–	> 10000 nM	200 nM
CC1(Oc2ncnc3c2nc(-c2ccc(OCCOCC(=O)O)cc2Cl)n3Cc2cccc(Cl)c2)CC1 [Example 46, 2-(2-(3-Chloro-4-(9-(3-chlorobenzyl)-6-(1-methylcyclopropoxy)-9H-purin-8-yl)phenoxy)ethoxy)acetic acid]	–	–	> 10000 nM	1260 nM
COc1ccc(Cl)cc1Cn1c(-c2ccc(OCC[C@@H](C)C(=O)O)cc2Cl)nc2c(OC3(C)CC3)ncnc21 [Example 47, (R)-4-(3-chloro-4-(9-(5-chloro-2-methoxybenzyl)-6-(1-methylcyclopropoxy)-9H-purin-8-yl)phenoxy)-2-methylbutanoic acid]	–	–	> 7940 nM	25.1 nM
COc1ccc(Cl)cc1Cn1c(-c2ccc(OCC[C@H](C)C(=O)O)cc2Cl)nc2c(OC3(C)CC3)ncnc21 [Example 48, (S)-4-(3-chloro-4-(9-(5-chloro-2-methoxybenzyl)-6-(1-methylcyclopropoxy)-9H-purin-8-yl)phenoxy)-2-methylbutanoic acid]	–	–	> 10000 nM	39.8 nM
COc1ccc(Cl)cc1Cn1c(-c2cccc(OCCC(=O)O)c2Cl)nc2c(OC3(C)CC3)ncnc21 [Example 49, 3-(2-Chloro-3-(9-(5-chloro-2-methoxybenzyl)-6-(1-methylcyclopropoxy)-9H-purin-8-yl)phenoxy)propanoic acid]	–	–	> 10000 nM	15.8 nM
